For 36 molecules, Ki results are on record in PMC7023381, “Sulfonamide Inhibition Profile of the β-Carbonic Anhydrase from Malassezia restricta, An Opportunistic Pathogen Triggering Scalp Conditions” (Metabolites, 2020).

The first experiment deals with T1, MreCA (Malassezia restricta, UniProt A0A3G2S4B9).
T1 construct: gene can; recombinant from synthetic gene in pET100D-Topo, E. coli BL21(DE3) codon plus; N-terminal His6-tag fusion, 27 kDa on SDS-PAGE; no tag cleavage told
T1 sequence (A0A3G2S4B9 1-238): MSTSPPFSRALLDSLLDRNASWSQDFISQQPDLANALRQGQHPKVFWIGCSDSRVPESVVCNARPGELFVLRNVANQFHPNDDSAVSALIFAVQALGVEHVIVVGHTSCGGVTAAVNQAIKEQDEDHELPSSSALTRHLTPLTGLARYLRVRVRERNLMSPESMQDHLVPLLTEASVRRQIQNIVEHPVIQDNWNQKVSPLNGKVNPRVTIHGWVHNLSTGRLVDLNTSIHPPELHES
Put plainly: stopped-flow CO2 hydrase assay. Type of experiment: biochemical.
Conditions: not given
Take `NCCc1ccc(S(N)(=O)=O)cc1` [compound 6, 6]: the Ki is more than 10 µM.

Still in this experiment, the particulars now being: read-out: MreCA.
`NS(=O)(=O)c1ccc(C(=O)O)cc1` [compound 18, 18]: the Ki was more than 10 µM.
Same read-out and setting: with `Cc1ccc(-c2cc(C(F)(F)F)nn2-c2ccc(S(N)(=O)=O)cc2)cc1` [CLX] the figure was 1.4 µM.
Still for that read-out and setting: with `Nc1ccc(S(=O)(=O)NCc2ccc(S(N)(=O)=O)cc2)cc1` [compound 23, 23] the figure was more than 10 µM.
Regarding `Nc1ccc(S(N)(=O)=O)cc1Cl` [compound 8, 8], the Ki is more than 10 µM.
On the same count and under the same terms, with `Nc1nccc(Nc2ccc(S(N)(=O)=O)cc2)n1` [compound 19, 19] the figure was 7.79 µM; with `NC(N)=Nc1nc(CSCCC(N)=NS(N)(=O)=O)cs1` [FAM], more than 10 µM; with `Nc1ccc(S(N)(=O)=O)cc1Br` [compound 9, 9], more than 10 µM.
With `Nc1ccc(S(=O)(=O)NCCc2ccc(S(N)(=O)=O)cc2)cc1` [compound 24, 24], the Ki is more than 10 µM.
Same read-out and setting: to `NS(=O)(=O)c1cc(Cl)c(Cl)c(S(N)(=O)=O)c1` [DCP] belongs 3.06 µM; to `Nc1ccc(S(N)(=O)=O)cc1F` [compound 7, 7], 4.59 µM.
The same measure, in the same setting: to `NS(=O)(=O)Cc1noc2ccccc12` [ZNS] belongs more than 10 µM.
Take `Cc1ccc(S(N)(=O)=O)cc1` [compound 4, 4]: the Ki is 4.04 µM.
The same measure, in the same setting: to `NS(=O)(=O)c1cc(Cl)cc(Cl)c1O` [compound 10, 10] belongs more than 10 µM.
Turning to `CC(=O)N=c1sc(S(N)(=O)=O)nn1C` [MZA], the Ki came to 3.9 µM.
On the same count and under the same terms, to `CC1(C)O[C@@H]2[C@@H](CO[C@@]3(COS(N)(=O)=O)OC(C)(C)O[C@@H]23)O1` [TPM] belongs 3.83 µM; to `Nc1ccc(S(=O)(=O)Nc2nnc(S(N)(=O)=O)s2)cc1` [compound 20, 20], 0.91 µM; to `Nc1cc(Cl)c(S(N)(=O)=O)cc1S(N)(=O)=O` [compound 12, 12], more than 10 µM.
On to `NS(=O)(=O)c1ccc(O)cc1` [compound 15, 15], for which the Ki was more than 10 µM.
The same measure, in the same setting: with `Cn1nc(S(N)(=O)=O)sc1=N` [compound 14, 14] the figure was more than 10 µM; with `NS(=O)(=O)c1ccc(S(=O)(=O)Nc2cccc3c(Cl)c[nH]c23)cc1` [IND], 0.87 µM.
In the case of `Nc1ccc(S(N)(=O)=O)cc1` [compound 2, 2], the Ki was found to be 4.62 µM.
The same measure, in the same setting: with `NS(=O)(=O)c1cccc(S(N)(=O)=O)c1` [compound 3, 3] the figure was more than 10 µM.
Still for that read-out and setting: to `NS(=O)(=O)c1ccc(CCO)cc1` [compound 17, 17] belongs more than 10 µM; to `CCN1CCCC1CNC(=O)c1cc(S(N)(=O)=O)ccc1OC` (stereo not drawn) [SLP], 4.85 µM; to `Nc1ccc(S(=O)(=O)Nc2ccc(S(N)(=O)=O)cc2)cc1` [compound 22, 22], 3.74 µM.
Still for that read-out and setting: to `CCN[C@H]1CN(CCCOC)S(=O)(=O)c2sc(S(N)(=O)=O)cc21` [BRZ] belongs 0.7 µM; to `NS(=O)(=O)c1ccc(N2CCCCS2(=O)=O)cc1` [SLT], 0.67 µM.
As to `NS(=O)(=O)c1nnc(NS(=O)(=O)c2ccccc2)s1` [BZA], the Ki amounted to 7.15 µM.
On the same count and under the same terms, to `NS(=O)(=O)c1ccc(CO)cc1` [compound 16, 16] belongs 6.51 µM; to `Nc1cc(C(F)(F)F)c(S(N)(=O)=O)cc1S(N)(=O)=O` [compound 11, 11], 6.76 µM.
For `Cc1onc(-c2ccccc2)c1-c1ccc(S(N)(=O)=O)cc1` [VLX], the Ki was determined as 0.77 µM.
Consider `NS(=O)(=O)c1cc2c(cc1Cl)NCNS2(=O)=O` [HCT], for which the Ki is 8.5 µM.
Same read-out and setting: to `O=C1NS(=O)(=O)c2ccccc21` [SAC] belongs 6.2 µM; to `Nc1nnc(S(N)(=O)=O)s1` [compound 13, 13], more than 10 µM; to `NCc1ccc(S(N)(=O)=O)cc1` [compound 5, 5], more than 10 µM.
